Experimental data from US20080161278A1, “2-Azetidinyl-4-(1H-Pyrazol-3-Ylamino) Pyrimidines as Inhibitors of Insulin-Like Growth Factor-1 Receptor Activity” (ASTRAZENECA AB, priority 2005, published 2008).

System: murine fibroblasts (NIH3T3) over-expressing human IGF-1 receptor
Assay: Test (c): inhibition of IGF-stimulated cell proliferation (BrdU incorporation)
Format: cell-based
Details: Mus musculus
Method: c) Inhibition of IGF-Stimulated Cell Proliferation
The construction of murine fibroblasts (NIH3T3) over-expressing human IGF-1 receptor has been described by Lammers et al (EMBO J, 8, 1369-1375, 1989). These cells show a proliferative response to IGF-I which can be measured by BrdU incorporation into newly synthesised DNA. Compound potency was determined as causing inhibition of the IGF-stimulated proliferation in the following assay:
Compounds are initially dissolved in DMSO to 10 mM, followed by dilutions in DMEM+1% FCS+glutamine to give a range from […] in 1-0.00045% DMSO final concentration in assay well.
Exponentially growing NIH3T3/IGFR cells were harvested and seeded in complete growth medium into a flat-bottomed 96 well tissue culture grade plate (Costar 3525) at 1.2×10^4 cells per well in a volume of 100 μl.
Growth medium was carefully removed from each well using a multi-channel pipette. Wells were carefully rinsed three times with 200 μl with HBSS. 100 μl of starvation medium was added to each well and the plate was re-incubated for 24 hours.
50 μl of a 4× concentrate of test compound was added to appropriate wells. Cells were incubated for 30 minutes with compound alone before the addition of IGF. […]
The incorporation of BrdU in the cells (after a 4 h incorporation period) was assessed using the BrdU Cell Proliferation Elisa according to the manufacturer's protocol.

| Structure (SMILES) | IC50 |
| --- | --- |
| Cc1cc(Nc2cc(N3CCOCC3)nc(N3CCC3c3cc(-c4ccccn4)no3)n2)n[nH]1 (centres unmarked) [Example 2, 6-Morpholino-2-{2-[3-(pyrid-2-yl)isoxazol-5-yl]azetidin-1-yl}-4-(5-methyl-1H-pyrazol-3-ylamino)pyrimidine] | 0.04 µM |
| Cc1cc(Nc2cc(C)[nH]n2)nc(N2CCC2c2cc(-c3ccccn3)no2)n1 (centres unmarked) [Example 4, 6-Methyl-2-{2-[3-(pyrid-2-yl)isoxazol-5-yl]azetidin-1-yl}-4-(5-methyl-1H-pyrazol-3-ylamino)pyrimidine] | 0.06 µM |
